Source: patent US20140349943A1, “TOPICAL FORMULATIONS OF CHEMERIN C15 PEPTIDES FOR THE TREATMENT OF DERMATOLOGICAL CONDITIONS” (priority 2011, published 2014)
Peptide text beside a SMILES is read from it.

How the values were obtained:
psoriasis patients = settings: cited from earlier work
[1] = tested on: IFNγ/LPS stimulated human macrophages; test: Cytokine secretion by IFNγ/LPS stimulated human macrophages (Luminex); type: cell-based
Text: In this example, the ability of human chemerin C15 to inhibit secretion of cytokines from activated human macrophages was examined. For this experiment, the activity of the human chemerin C15 peptide […] (SEQ ID NO: 1) was compared to that of the human chemerin C17 peptide […] (SEQ ID NO: 25). The C15 and C17 peptides were synthesized by solid phase synthesis using BOP coupling of FMOC protected amino acids with final cleavage from the resin with TFA. Peptides were purified by reverse phase C18 chromatography using a water/acetonitrile gradient.
Human macrophages were derived from human CD14+ monocytes obtained from 3 donors. On Day 1, the isolated monocytes were thawed and seeded in triplicate for each group in 1 ml RPMI 1640 GlutaMAX™ media (supplemented with 10% FBS, 100 U/ml penicillin, 100 μg/ml streptomycin, 0.05 μM mercaptoethanol, 1% NEAA and 1% sodium pyruvate) per well of a 24 well cell culture dish at a cell concentration of 5×10^5 cells/ml. M-CSF was added to each well to give a final concentration of 25 ng/ml. Cells were grown for 7 days at 37° C. with 5% CO2 to differentiate the cells into macrophages. Media and M-CSF were replaced after 4 days.
Following differentiation, the media containing M-CSF was removed. The cells were washed and vehicle control, dexamethasone, C15 or C17 were added to the appropriate wells. The test peptides were dissolved in 50% DMSO/water prior to addition. C-15 (MW 1669; 16.7 mg/ml) was added to a final concentration of […] and C17 (MW 1904; 19.0 mg/ml) was added to a final concentration of 1 μM. Dexamethasone was added to a final concentration of 1 μM. Following addition to the wells, the plates were incubated at 37° C. with 5% CO2 for 1 hour. An equal volume of complete media was added to the non-treated wells. Control or test treatments were maintained at the correct concentration throughout the assay.
IFNγ (final concentration 20 ng/ml) was then added to the appropriate wells. Following IFNγ addition, the plates were incubated at 37° C. with 5% CO2 for 4 hours. The concentration of vehicle control, test treatments or dexamethasone was maintained during IFNγ stimulation. LPS (final concentration 10 ng/ml) was then added to the appropriate wells. Following LPS addition, the plates were incubated at 37° C. with 5% CO2 for 15 hours. After 6 hours, ˜60 μl of culture supernatant was removed from all wells and stored at −80° C. for analysis. The concentration of vehicle control, test treatments or dexamethasone was maintained during LPS stimulation.
At 15 hours post LPS stimulation, the remaining cell culture supernatant was harvested and stored at −80° C. until assayed. The concentration of vehicle control, test treatments or dexamethasone was maintained until culture termination.
Cell culture supernatants taken at 6 hours and 15 hours post LPS addition were assayed for the production of RANTES, TNFα, IL-1β, IL-6, IL-10, IL-12p40 (subunit common to IL-12 and IL-23) and IL-15 (negative control) using Luminex® technology (Procarta human cytokine kit; Panomics) following the manufacturer's instructions.
In this experiment, the importance of the FYFP motif (SEQ ID NO: 2) in the human chemerin C15 peptide on anti-inflammatory activity was examined. The ability of the human chemerin C15 peptide […] (SEQ ID NO: 1) was compared to that of a substituted chemerin C15 peptide having the amino acid sequence […] (SEQ ID NO: 27), where the second phenylalanine in the peptide is modified to alanine. The experiment was performed as described in Example 1. 0.1 pM 0.5 pM and 1 pM concentrations of the C15 and C15 mutant peptides were tested. Cytokine expression was determined as described in Example 1.

GPR1 = molecular target: T1, GPR1 (Homo sapiens, UniProt P46091); test: PathHunter β-Arrestin assay, GPR1, agonist and antagonist mode; type: cell-based; settings: for agonist activity, in words: FIG. 2A/2B
T1 construct: host or cells: CHO
T1 sequence (P46091 1-355): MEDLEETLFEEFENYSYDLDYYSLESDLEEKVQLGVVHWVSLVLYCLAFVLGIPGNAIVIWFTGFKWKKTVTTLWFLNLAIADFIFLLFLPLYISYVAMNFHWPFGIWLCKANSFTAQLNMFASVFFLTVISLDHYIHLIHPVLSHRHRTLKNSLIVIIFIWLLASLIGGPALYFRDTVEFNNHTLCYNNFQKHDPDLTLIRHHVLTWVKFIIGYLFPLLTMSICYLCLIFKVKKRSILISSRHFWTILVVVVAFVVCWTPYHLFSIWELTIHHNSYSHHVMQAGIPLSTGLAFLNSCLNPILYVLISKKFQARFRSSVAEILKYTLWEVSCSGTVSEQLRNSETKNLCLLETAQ
Method: (§1) The DiscoveRx PathHunter™ eXpress GPCR activity assay was employed to test agonist and antagonist activities of the chemerin peptides against the GPCRs ChemR23 and GPR1. Two assay formats were tested, the PathHunter β-Arrestin assay and the Hit Hunter cAMP Hunter assay.
(§2) The PathHunter β-Arrestin assay monitors the activation of a GPCR in a homogenous, non-imaging assay format using a technology developed by DiscoveRx called complementation, which utilizes an enzyme fragment complementation (EFC) assay with β-galactosidase (β-Gal) as the functional reporter. The enzyme is split into two complementary portions expressed as fusion proteins in the cell. The Enzyme Acceptor (EA) is fused to β-Arrestin and the ProLink donor peptide is fused to the GPCR of interest. Upon GPCR stimulation, β-Arrestin is recruited to the receptor for desensitization, bringing the two fragments of β-Gal together and allowing complementation to occur.
(§3) The assay involves CHO cell lines that express 1) a GPCR of interest (e.g. ChemR23 or GPR1) that has a fragment of the βgal enzyme fused to the C-terminus of the receptor and 2) a β-arrestin fused to the main β-gal enzyme. When the agonist binds to the receptor, β-arrestin is recruited to the receptor and the β-gal enzyme is complemented by the fragment from the GPCR thus forming a functional β-gal enzyme. A substrate is then added and luminescence is generated to detect β-arrestin recruitment.
(§4) The protocol used was a standard protocol employed by DiscoveRx PathHunter™ profiling service. […] Once it was established that the cells were healthy and growing normally, cells were passaged from flasks using cell dissociation reagent and seeded into white walled clear bottom 384-well microplates for compound profiling. For profiling, cells were seeded at a density of 5000 cells per well in a total volume of 20 μL and were allowed to adhere and recover overnight prior to compound addition.
(§5) For the agonist assay, intermediate dilution of compound stocks were generated such that 5 μL of 5× compound could be added to each well with a final DMSO concentration of 1% of total volume. For profiling compound in agonist mode, the cells were incubated in the presence of compound at 37° C. for 90 minutes.
(§6) For the antagonist assay, agonist dose curves were performed the morning of profiling to determine the EC80 value for the following antagonist testing with compounds. 5 μL of 5× agonist (i.e. chemerin) was added to each well with an equal concentration of vehicle present. EC80 agonist concentration was determined directly from agonist dose curve. For antagonist determination, cells were preincubated with antagonist followed by agonist challenge at the EC80 concentration: 4. 5 μL of 5× compound added to cells and incubated at 37° C. for 30 minutes. 5. 5 μL of 6× EC80 agonist added to cells and incubated at 37° C. for 90 minutes.
(§7) Microplates were read following signal generation with a PerkinElmer Envision™ instrument for chemiluminescent signal detection
(§8) Dose curves in the presence and absence of compound were plotted using GraphPad Prism or Activity Base. For agonist mode assays, percentage activity was calculated using the following formula: % Activity=100%×(Mean RLU of test sample−mean RLU of vehicle control)/(mean MAX RLU control ligand−mean RLU of vehicle control)). For antagonist mode assays, percentage inhibition was calculated using the following formula: % Inhibition=100%×(1−(Mean RLU of test sample−mean RLU of vehicle control)/(mean RLU of EC80 control−mean RLU of vehicle control)).

mChemR23 = molecular target: T2, mChemR23 (Mus musculus, UniProt P97468); test: PathHunter β-Arrestin assay, mouse ChemR23; type: cell-based
T2 construct: host or cells: CHO (stated generally for the PathHunter assay)
T2 sequence (P97468 1-371): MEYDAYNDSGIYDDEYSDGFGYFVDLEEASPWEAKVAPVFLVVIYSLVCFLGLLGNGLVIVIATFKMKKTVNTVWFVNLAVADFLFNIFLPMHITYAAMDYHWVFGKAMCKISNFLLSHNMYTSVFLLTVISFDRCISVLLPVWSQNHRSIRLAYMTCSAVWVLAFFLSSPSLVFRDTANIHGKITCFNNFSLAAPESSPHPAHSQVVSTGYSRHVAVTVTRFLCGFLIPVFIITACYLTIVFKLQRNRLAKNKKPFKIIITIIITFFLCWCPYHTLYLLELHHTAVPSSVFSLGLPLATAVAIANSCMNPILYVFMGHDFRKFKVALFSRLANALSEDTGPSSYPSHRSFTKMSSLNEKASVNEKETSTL
Method: as §1, §2, §3, §4, §5
as §6, with “5 μL of 6× EC80 agonist added to cells and incubated at 37° C. for 90 minutes.” left out
as §7, §8

ChemR23 = molecular target: T3, ChemR23 (Homo sapiens, UniProt Q99788); test: Hit Hunter cAMP Hunter assay, human ChemR23; type: cell-based
T3 sequence (Q99788 1-373): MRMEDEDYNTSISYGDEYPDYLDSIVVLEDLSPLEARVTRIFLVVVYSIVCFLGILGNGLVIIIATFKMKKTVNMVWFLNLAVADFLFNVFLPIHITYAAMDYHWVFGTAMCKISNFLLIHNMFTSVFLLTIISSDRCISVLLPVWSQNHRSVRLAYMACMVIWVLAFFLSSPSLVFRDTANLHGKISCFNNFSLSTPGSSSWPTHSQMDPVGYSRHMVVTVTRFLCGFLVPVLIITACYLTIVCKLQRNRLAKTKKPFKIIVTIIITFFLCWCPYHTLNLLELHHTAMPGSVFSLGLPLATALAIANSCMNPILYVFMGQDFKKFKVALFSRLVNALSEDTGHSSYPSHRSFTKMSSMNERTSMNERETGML
Method: as §1
as §4, with “reagent buffer” for “reagent”, “10000” for “5000”, “addition. Cells were treated the following day using the protocols shown below. cAMP modulation was determined using the DiscoveRx HitHunter cAMP XS+ assay.” for “addition.”
For profiling compound in agonist mode, the cells were incubated in the presence of compound at 37° C. for 30 minutes.
EC80 agonist concentration was determined directly from agonist dose curve.
Microplates were read following signal generation with a PerkinElmer Envision™ instrument for chemiluminescent signal detection.
Dose curves in the presence and absence of compound were plotted using GraphPad Prism or Activity Base.

ChemR23 (CMKLR1) = molecular target: T4, ChemR23 (CMKLR1) (Homo sapiens, UniProt Q99788); test: PathHunter β-Arrestin assay, ChemR23 (CMKLR1), agonist and antagonist mode; type: cell-based
T4 construct: host or cells: CHO
T4 sequence (Q99788 1-373): T3 sequence (Q99788 1-373)
Method: as §1, §2, §3, §4, §5, §6, §7, §8

[2] = Example 3, 0.1 pM 0.5 pM and 1 pM tested, FIG. 3

Compound: Stelara: approved systemic mono-clonal antibody for psoriasis, clears IL-23
- time of maximal serum concentrations (psoriasis patients; post-injection): 5 days
- improvement in PASI score (psoriasis patients; within two weeks after a single dose): 50%

Compound: AGEDPHGYFAPGQFA [mutant C15 polypeptide]
- percent inhibition of RANTES expression [1, 2]: unable to inhibit expression
- percent inhibition of TNFα expression [1, 2]: unable to inhibit expression

Compound: hrChemerin: chemerin protein, control agonist of ChemR23 and GPR1
- agonist activity, in words (GPR1; GPR1): potent agonist activity
- EC50 (mChemR23; Arrestin, Agonist, mChemR23, read-out: RC50 (uM), EC50): 0.00154 µM

Compound: C[C@H](N)C(=O)NCC(=O)N[C@@H](CCC(=O)O)C(=O)N[C@@H](CC(=O)O)C(=O)N1CCC[C@H]1C(=O)N[C@@H](Cc1c[nH]cn1)C(=O)N[C@@H](CO)C(=O)N[C@@H](Cc1ccccc1)C(=O)N[C@@H](Cc1ccc(O)cc1)C(=O)N[C@@H](Cc1ccccc1)C(=O)N1CCC[C@H]1C(=O)NCC(=O)N[C@@H](CCC(N)=O)C(=O)N[C@@H](Cc1ccccc1)C(=O)N[C@@H](C)C(=O)N[C@@H](Cc1ccccc1)C(=O)O [C16 (human)] (H-AGEDPHSFYFPGQFAF-OH; N-terminus and C-terminus assumed)
- IC50 (ChemR23): > 10 µM
- IC50 (GPR1): > 10 µM
- agonist activity, in words (GPR1; GPR1): exhibited agonist activity
- Rank Order (GPR1; GPR1, agonist): 2
- % Max Activity (GPR1; GPR1, agonist mode): 87.9%
- % Max Inhibition (GPR1; GPR1, antagonist mode, chemerin at EC80): 0%
- IC50 (ChemR23 (CMKLR1)): > 10 µM
- Rank Order (ChemR23 (CMKLR1); ChemR23, agonist): 1
- % Max Activity (ChemR23 (CMKLR1); ChemR23, agonist mode): 98.6%
- % Max Inhibition (ChemR23 (CMKLR1); ChemR23, antagonist mode, chemerin at EC80): 0%
- agonist activity, in words (ChemR23 (CMKLR1); human ChemR23, FIG. 2A/2B): exhibited agonist activity
- IC50 (mChemR23): > 10 µM

Compound: C[C@@H]1C[C@H]2[C@@H]3CCC4=CC(=O)C=C[C@]4(C)[C@@]3(F)[C@@H](O)C[C@]2(C)[C@@]1(O)C(=O)CO [Dexamethasone]
- inhibition of IL-1β secretion ([1]; 1 μM dosage): approximately 30%
- inhibition of RANTES secretion ([1]; 1 μM dosage): ~50%
- inhibition at 1 µM ([1]; Homo sapiens, Macrophage, dexamethasone 1 μM, read-out: inhibition of the production of IL-10): ~70%
